According to the NIST ThermoML archive (doi:10.1016/j.jct.2016.09.010):
Numbers after ± are expanded uncertainties.

Tests used:
[1] = xn = mol fraction of the nth substance listed; settings: 100 kPa, Liquid; for speed of sound: Frequency=2 MHz, Linear variable-path acoustic interferometer; for mass density: Vibrating tube method
[2] = 100 kPa, Liquid; for speed of sound: Frequency=2 MHz, Linear variable-path acoustic interferometer; for mass density: Vibrating tube method

CCOC(=O)C(C)O (stereo not drawn) [DL-ethyl lactate] + CCNc1ccccc1
speed of sound ([1]; 303.15 K, x1 = 1): 1261.1 ± 2.5 m/s | mass density ([1]; 303.15 K, x1 = 1): 1022.88 ± 2.2 kg/m3 | speed of sound ([1]; 308.15 K, x1 = 1): 1243.8 ± 2.5 m/s | mass density ([1]; 308.15 K, x1 = 1): 1017.39 ± 2.1 kg/m3 | speed of sound ([1]; 313.15 K, x1 = 1): 1224.8 ± 2.5 m/s | mass density ([1]; 313.15 K, x1 = 1): 1011.83 ± 2.1 kg/m3 | speed of sound ([1]; 318.15 K, x1 = 1): 1206.9 ± 2.5 m/s | mass density ([1]; 318.15 K, x1 = 1): 1006.31 ± 2.1 kg/m3

CCOC(=O)C(C)O (stereo not drawn) [DL-ethyl lactate] + CNc1ccccc1
speed of sound ([1]; 303.15 K, x1 = 1): 1261.1 ± 2.5 m/s | mass density ([1]; 303.15 K, x1 = 1): 1022.88 ± 2.2 kg/m3 | speed of sound ([1]; 308.15 K, x1 = 1): 1243.8 ± 2.5 m/s | mass density ([1]; 308.15 K, x1 = 1): 1017.39 ± 2.1 kg/m3 | speed of sound ([1]; 313.15 K, x1 = 1): 1224.8 ± 2.5 m/s | mass density ([1]; 313.15 K, x1 = 1): 1011.83 ± 2.1 kg/m3 | speed of sound ([1]; 318.15 K, x1 = 1): 1206.9 ± 2.5 m/s | mass density ([1]; 318.15 K, x1 = 1): 1006.31 ± 2.1 kg/m3

CCNc1ccccc1 [N-ethylaminobenzene]
speed of sound ([2]; 303.15 K): 1497 ± 1.7 m/s | mass density ([2]; 303.15 K): 952.41 ± 2 kg/m3 | speed of sound ([2]; 308.15 K): 1481 ± 1.7 m/s | mass density ([2]; 308.15 K): 947.69 ± 2 kg/m3 | speed of sound ([2]; 313.15 K): 1464 ± 1.7 m/s | mass density ([2]; 313.15 K): 942.95 ± 2 kg/m3 | speed of sound ([2]; 318.15 K): 1448 ± 1.6 m/s | mass density ([2]; 318.15 K): 938.23 ± 2 kg/m3

Nc1ccccc1 [aniline] + CCOC(=O)C(C)O
speed of sound ([1]; 303.15 K, x2 = 0): 1614 ± 1.7 m/s | mass density ([1]; 303.15 K, x2 = 0): 1012.81 ± 2 kg/m3 | speed of sound ([1]; 308.15 K, x2 = 0): 1595 ± 1.7 m/s | mass density ([1]; 308.15 K, x2 = 0): 1008.91 ± 2 kg/m3 | speed of sound ([1]; 313.15 K, x2 = 0): 1574.4 ± 1.7 m/s | mass density ([1]; 313.15 K, x2 = 0): 1004.59 ± 2 kg/m3 | speed of sound ([1]; 318.15 K, x2 = 0): 1554.9 ± 1.7 m/s | mass density ([1]; 318.15 K, x2 = 0): 1000.21 ± 2 kg/m3

CNc1ccccc1 [N-methylaniline]
speed of sound ([2]; 303.15 K): 1547 ± 1.7 m/s | mass density ([2]; 303.15 K): 978.2 ± 2 kg/m3 | speed of sound ([2]; 308.15 K): 1526.9 ± 1.7 m/s | mass density ([2]; 308.15 K): 973.53 ± 2 kg/m3 | speed of sound ([2]; 313.15 K): 1511 ± 1.7 m/s | mass density ([2]; 313.15 K): 969.92 ± 2 kg/m3 | speed of sound ([2]; 318.15 K): 1491.4 ± 1.7 m/s | mass density ([2]; 318.15 K): 964.9 ± 2 kg/m3

Nc1ccccc1 [aniline]
speed of sound ([2]; 303.15 K): 1614 ± 1.7 m/s | mass density ([2]; 303.15 K): 1012.81 ± 2 kg/m3 | speed of sound ([2]; 308.15 K): 1595 ± 1.7 m/s | mass density ([2]; 308.15 K): 1008.91 ± 2 kg/m3 | speed of sound ([2]; 313.15 K): 1574.4 ± 1.7 m/s | mass density ([2]; 313.15 K): 1004.59 ± 2 kg/m3 | speed of sound ([2]; 318.15 K): 1554.9 ± 1.7 m/s | mass density ([2]; 318.15 K): 1000.21 ± 2 kg/m3
